{
  "source": "patent US20100113613A1",
  "about": "“CYCLOHEXANE POLYALCOHOL FORMULATION FOR TREATMENT OF DISORDERS OF PROTEIN AGGREGATION” (WARATAH PHARMACEUTICALS, priority 2006, published 2010)",
  "key": {"Aβ40": {"target": "T1, Aβ40 (Homo sapiens, UniProt P05067)", "T1 construct": "associated with reduced levels of insoluble Aβ40 and Aβ42 in the brain; from tissue; host or cells: brain homogenate (and plasma) of TgCRND8 transgenic mice", "T1 sequence (P05067 672-711)": "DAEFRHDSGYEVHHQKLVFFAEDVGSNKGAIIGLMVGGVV", "experiment": "TgCRND8 mice 2 month ad libitum treatment from 5 months: brain and plasma Aβ40 ELISA", "format": "in vivo", "details": "2 month treatment ad libitum 10 mg/ml from 5 months of age"}, "plaque burden [1]": {"tested_on": "plaque burden", "experiment": "TgCRND8 mice therapeutic dosing (5-6 months): plaque burden", "format": "in vivo", "details": "TgCRND8 mice dosed 5-6 months age, 28 days, 10 mg/ml in drinking water"}, "[2]": {"experiment": "Competition of scyllo-inositol uptake by myo-inositol after single oral gavage (FIG. 17)", "format": "in vivo", "details": "co-administration of 0, 50, 200 or 400 μg of myo-inositol", "experimental": "FIG. 17. A competition assay with myo-inositol to compete scyllo-inositol uptake, following a single oral gavage dose was examined. (A) Plasma 3^H-scyllo-inositol levels following co-administration of 0, 50, 200 or 400 μg of myo-inositol. Myo-inositol loading appears to alter the kinetics of oral scyllo-inositol uptake in a dose-dependent manner."}, "Aβ42": {"target": "T2, Aβ42 (Homo sapiens, UniProt P05067)", "T2 construct": "Levels of Aβ42 in brain homogenates were assessed by ELISA; from tissue; host or cells: brain homogenate (and plasma) of TgCRND8 transgenic mice", "T2 sequence (P05067 672-713)": "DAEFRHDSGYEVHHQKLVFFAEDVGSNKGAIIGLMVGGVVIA", "experiment": "TgCRND8 mice 2 month ad libitum treatment from 5 months: brain and plasma Aβ42 ELISA", "format": "in vivo", "details": "2 month treatment ad libitum 10 mg/ml from 5 months of age"}, "Aβ plaque burden": {"tested_on": "Aβ plaque burden", "experiment": "TgCRND8 mice 2 month ad libitum treatment from 5 months: Aβ plaque burden", "format": "in vivo", "details": "2 months ad libitum from 5 months"}, "clinical": {"experiment": "clinical", "details": "human, in vivo", "source_text": "Dose levels were escalated between cohorts, such that the first cohort received the lowest dose level, the middle cohorts received intermediate dose levels, and the final cohort received the highest proposed dose level. Dose escalation was dependent on a review of safety data from the previously dosed cohort. […] Dosing started with the lowest dose and escalated to the highest dose. […] Subjects received their single dose of study drug on the study day 1 (Day 1). Throughout the day on Day 1, subjects were monitored for safety and PK samples were drawn. On Day 2, subjects were monitored for safety and PK samples were drawn."}, "long term potentiation": {"tested_on": "long term potentiation", "experiment": "Long term potentiation experiments with amyloid oligomer", "details": "amyloid oligomer concentration 1-2 nM", "experimental": "More complex systems provide support for 5 μM (0.9 μg/mL) as an effective local concentration of the scyllo-cyclohexanehexyl. […] The effectiveness of this concentration was confirmed in acute cognitive dysfunction study in rats."}, "plaque burden [3]": {"tested_on": "plaque burden", "experiment": "TgCRND8 effective dose range (0.3-3.3 mg/kg/day, 3 to 4 months): plaque burden", "format": "in vivo", "details": "TgCRND8 mice", "experimental": "The highest possible dose level of scyllo-cyclohexanehexyl compound was administered in a CRND8 mouse model. […]8 mice were dosed for 28 days from 3 to 4 months of age, i.e. a time when the disease phenotype would be newly established. This study design was selected to enhance the efficiency of the study (dose earlier) and maximise the information obtained (dose at a time when changes are of sufficient magnitude to detect a treatment effect). […] Cognitive function and plaque burden were assessed. • Improvement of cognitive function: Animals were assessed using the Morris Water Maze at 4 months (FIG. 11). […] This path length was similar to that observed in previous experiments in mice dosed with the compound in drinking water ad libitum. […] Thus a clear dose response was observed."}},
  "note": "Marks after values point to notes of the source that are not given here.",
  "data": [
    {"compound": "OC1C(O)C(O)C(O)C(O)C1O", "note": "(centres unmarked) [AZD-103, scyllo-inositol]", "values": [
      {"measurement": "Plasma Aβ levels Aβ40", "setting": "Aβ40", "result": "4507 ± 207", "unit": "pg/mL"},
      {"measurement": "Mean Plaque Size", "setting": "plaque burden [1]", "result": "336 ± 6* μm^2"},
      {"measurement": "Total Plaque Area", "setting": "plaque burden [1]", "result": "420027 ± 14986* μm^2"},
      {"measurement": "brain levels of scyllo-inositol at 4 h following myo-inositol administration", "setting": "[2]", "result": "not significantly changed"},
      {"measurement": "twice-daily oral gavage vs one daily dose at equivalent doses, reversing cognitive deficits", "setting": "TgCRND8 mice; TgCRND8 mice, dose finding studies", "result": "more effective than one daily dose"},
      {"measurement": "adverse effects in the mice", "setting": "TgCRND8 mice; mouse, in vivo", "result": "no evidence of adverse effects"},
      {"measurement": "Plasma Aβ levels Aβ42", "setting": "Aβ42", "result": "3035 ± 236", "unit": "pg/mL"},
      {"measurement": "growth of plaques by size distribution", "setting": "Aβ plaque burden", "result": "effective at inhibiting the growth of plaques of all sizes"},
      {"measurement": "percent brain area covered in plaques", "setting": "Aβ plaque burden; P=0.0001", "result": "significantly reduced"},
      {"measurement": "mean elimination half-life (t1/2), range over doses", "setting": "clinical; po", "result": "13 24"},
      {"measurement": "CL/F", "setting": "clinical; po, 500 mg", "result": "13.67 ± 5.49", "unit": "L/h"},
      {"measurement": "CL/F", "setting": "clinical; po, 1000 mg", "result": "8.51 ± 2.78", "unit": "L/h"},
      {"measurement": "CL/F", "setting": "clinical; po, 2000 mg", "result": "9.59 ± 1.80", "unit": "L/h"},
      {"measurement": "CL/F", "setting": "clinical; po, 3500 mg", "result": "7.71 ± 1.59", "unit": "L/h"},
      {"measurement": "CL/F", "setting": "clinical; po, 5000 mg", "result": "10.04 ± 1.49", "unit": "L/h"},
      {"measurement": "Vd", "setting": "clinical; male, 7000 mg", "result": 214, "unit": "L"},
      {"measurement": "half-life", "setting": "clinical; male, 7000 mg", "result": 18.4, "unit": "h"},
      {"measurement": "share of the AUC accounted for in the first 12 hrs", "setting": "clinical; male, po", "result": "80-85%"},
      {"measurement": "AUC(0-inf)", "setting": "clinical; male, po, 500 mg", "result": "42.5 ± 22.1", "unit": "µg·h/mL"},
      {"measurement": "AUC(0-t)", "setting": "clinical; male, po, 500 mg", "result": "29.9 ± 7.11", "unit": "µg·h/mL"},
      {"measurement": "Cmax", "setting": "clinical; male, po, 500 mg", "result": "5.83 ± 1.83", "unit": "µg/mL"},
      {"measurement": "MRT", "setting": "clinical; male, po, 500 mg", "result": "19.1 ± 21.8", "unit": "h"},
      {"measurement": "Tmax", "setting": "clinical; male, po, 500 mg", "result": "4 ± 1.55", "unit": "h"},
      {"measurement": "half-life", "setting": "clinical; male, po, 500 mg", "result": "13.3 ± 16.7", "unit": "h"},
      {"measurement": "AUC(0-inf)", "setting": "clinical; male, po, 1000 mg", "result": "130 ± 44.4", "unit": "µg·h/mL"},
      {"measurement": "Cmax", "setting": "clinical; male, po, 1000 mg", "result": "17 ± 5.29", "unit": "µg/mL"},
      {"measurement": "MRT", "setting": "clinical; male, po, 1000 mg", "result": "19.7 ± 3.17", "unit": "h"},
      {"measurement": "Tmax", "setting": "clinical; male, po, 1000 mg", "result": "3.25 ± 1.47", "unit": "h"},
      {"measurement": "half-life", "setting": "clinical; male, po, 1000 mg", "result": "22.5 ± 5.75", "unit": "h"},
      {"measurement": "AUC(0-inf)", "setting": "clinical; male, po, 2000 mg", "result": "215 ± 41.9", "unit": "µg·h/mL"},
      {"measurement": "AUC(0-t)", "setting": "clinical; male, po, 2000 mg", "result": "194 ± 36.1", "unit": "µg·h/mL"},
      {"measurement": "Cmax", "setting": "clinical; male, po, 2000 mg", "result": "33.1 ± 7.57", "unit": "µg/mL"},
      {"measurement": "MRT", "setting": "clinical; male, po, 2000 mg", "result": "16.3 ± 3.99", "unit": "h"},
      {"measurement": "Tmax", "setting": "clinical; male, po, 2000 mg", "result": "2.75 ± 0.61", "unit": "h"},
      {"measurement": "half-life", "setting": "clinical; male, po, 2000 mg", "result": "23.9 ± 7.24", "unit": "h"},
      {"measurement": "AUC(0-inf)", "setting": "clinical; male, po, 3500 mg", "result": "467 ± 77.7", "unit": "µg·h/mL"},
      {"measurement": "AUC(0-t)", "setting": "clinical; male, po, 3500 mg", "result": "441 ± 71.4", "unit": "µg·h/mL"},
      {"measurement": "Cmax", "setting": "clinical; male, po, 3500 mg", "result": "74.6 ± 9.24", "unit": "µg/mL"},
      {"measurement": "MRT", "setting": "clinical; male, po, 3500 mg", "result": "11 ± 1.43", "unit": "h"},
      {"measurement": "Tmax", "setting": "clinical; male, po, 3500 mg", "result": "2.75 ± 0.61", "unit": "h"},
      {"measurement": "half-life", "setting": "clinical; male, po, 3500 mg", "result": "20.3 ± 3.09", "unit": "h"},
      {"measurement": "AUC(0-inf)", "setting": "clinical; male, po, 5000 mg", "result": "507 ± 72", "unit": "µg·h/mL"},
      {"measurement": "AUC(0-t)", "setting": "clinical; male, po, 5000 mg", "result": "491 ± 73.2", "unit": "µg·h/mL"},
      {"measurement": "Cmax", "setting": "clinical; male, po, 5000 mg", "result": "110 ± 26.9", "unit": "µg/mL"},
      {"measurement": "MRT", "setting": "clinical; male, po, 5000 mg", "result": "8.23 ± 2", "unit": "h"},
      {"measurement": "Tmax", "setting": "clinical; male, po, 5000 mg", "result": "2.42 ± 0.66", "unit": "h"},
      {"measurement": "half-life", "setting": "clinical; male, po, 5000 mg", "result": "16.9 ± 7.1", "unit": "h"},
      {"measurement": "AUC(0-inf)", "setting": "clinical; male, po, 7000 mg", "result": "885 ± 151", "unit": "µg·h/mL"},
      {"measurement": "AUC(0-t)", "setting": "clinical; male, po, 7000 mg", "result": "860 ± 148", "unit": "µg·h/mL"},
      {"measurement": "Cmax", "setting": "clinical; male, po, 7000 mg", "result": "155 ± 20.4", "unit": "µg/mL"},
      {"measurement": "Tmax", "setting": "clinical; male, po, 7000 mg", "result": "2.42 ± 0.67", "unit": "h"},
      {"measurement": "half-life", "setting": "clinical; male, po, 7000 mg", "result": "18.4 ± 4.64", "unit": "h"}
    ]},
    {"compound": "scyllo-inositol [AZD-103]", "values": [
      {"measurement": "lowest maximally-effective dose level", "setting": "long term potentiation", "result": 5, "unit": "µM"},
      {"measurement": "plaque parameters (plaque count and brain plaque area)", "setting": "plaque burden [3]; 0.3 mg/kg/day, 28 days from 3 to 4 months", "result": "indistinguishable from untreated controls"},
      {"measurement": "plaque parameters (plaque count and brain plaque area)", "setting": "plaque burden [3]; 1 mg/kg/day, plaque count p=0.02, plaque area p=0.011", "result": "significantly reduced"},
      {"measurement": "plaque parameters (plaque count and brain plaque area)", "setting": "plaque burden [3]; 3.3 mg/kg/day, plaque count p<0.0001, plaque area p<0.001", "result": "greatest reduction in plaque burden"}
    ]}
  ]
}
